Data: patent publication US11414402B2, “Sulfonamide-substituted cyanopyrrolidines with activity as DUB inhibitors” (MISSION THERAPEUTICS LIMITED, priority 2017, dated 2022)
pIC50: −log10 of the molar value. Read-outs that look alike come from different tables or passages of the source.

Tests used:
[1] = molecular target: USP30 (Homo sapiens (Human), UniProt Q70CQ3); assay: USP30 biochemical IC50 assay (fluorescence polarisation)
Description: (§1) A typical 8-point dilution series would be 100, 30, 10, 3, 1, 0.3, 0.1, 0.03 μM final. […] Either 1 μl of 50% DMSO or diluted compound was added to the plate. USP30 was diluted in reaction buffer (40 mM Tris, pH 7.5, 0.005% Tween 20, 0.5 mg/ml BSA, 5 mM beta-mercaptoethanol) to the equivalent of 0.05 μl/well and 10 μl of diluted USP30 was added to the compound. Enzyme and compound were incubated for 30 min at room temp. Reactions were initiated by the addition of 50 nM of TAMRA labelled peptide linked to ubiquitin via an iso-peptide bond as fluorescence polarisation substrate. Reactions were read immediately after addition of substrate and following a 2-hour incubation at room temperature. Readings were performed on a Pherastar Plus (BMG Labtech). λ Excitation 540 nm; λ Emission 590 nm.

[2] = molecular target: UCHL1 (Homo sapiens (Human), UniProt P09936); assay: UCHL1 biochemical IC50 assay (fluorescence polarisation)
Description: The UCHL1 construct was PCR amplified and cloned into a pFLAG-CMV-6a vector (Sigma-Aldrich) with an N-terminal FLAG tag. HEK293T cells were transfected with FLAG-UCHL1 using TransIT-LT1 transfection reagent (Mirus) according to the manufacturer's instructions. Cells were harvested 40 hours after transfection. […] The resin was washed two times with low salt buffer and one time with high salt buffer (20 mM Tris, pH 7.5, 500 mM NaCl, 0.5 mM EDTA, 5 mM beta-mercaptoethanol, protease inhibitors (complete mini, Roche) and phosphatase inhibitors (PhosSTOP mini, Roche). To elute the bound UCHL1, elution buffer (10 mM Tris, pH 7.5, 150 mM NaCl, 0.5 mM EDTA, 10% glycerol, 0.5% NP40, 5 mM beta-mercaptoethanol, 0.15 mg/ml 3× FLAG peptide (Sigma-Aldrich)) was added to the resin and incubated at 4° C. for 2.5 hours rotating. The resin was centrifuged at 4000 rpm for 30 seconds, and the supernatant containing purified FLAG-UCHL1 was removed and stored at −80° C.
UCHL1 was diluted in reaction buffer (20 mM Tris, pH 7.5, 100 mM NaCl, 0.05% Tween 20, 0.5 mg/ml BSA, 5 mM beta-mercaptoethanol) to the equivalent of 0, 0.01, 0.05, 0.1, 0.5, and 1 μl/well. Buffer was optimised for optimal temperature, pH, reducing agent, salts, time of incubation, and detergent. Reactions were initiated by the addition of 50 nM of TAMRA labelled peptide linked to ubiquitin via an iso-peptide bond as fluorescence polarisation substrate. Reactions were incubated at room temperature and read every 2 min for 120 min. Readings were performed on a Pherastar Plus (BMG Labtech). λ Excitation 540 nm; λ Emission 590 nm.
as §1, with “to” for “would”, “be” for “be 100,”, “0.03, 0.01” for “0.03”, “UCHL1” for “USP30”, “(20” for “(40”, “100 mM NaCl, 0.05%” for “0.005%”

[3] = USP30 CD (57-517), 30 min preincubation at room temp, TAMRA-peptide-ubiquitin substrate 50 nM, read after 2-hour incubation, read-out: IC50 range
[4] = FLAG-UCHL1, 30 min preincubation at room temp, TAMRA-peptide-ubiquitin substrate 50 nM, read after 2-hour incubation, read-out: IC50 range

UCHL1, sequence (P09936 whole entry): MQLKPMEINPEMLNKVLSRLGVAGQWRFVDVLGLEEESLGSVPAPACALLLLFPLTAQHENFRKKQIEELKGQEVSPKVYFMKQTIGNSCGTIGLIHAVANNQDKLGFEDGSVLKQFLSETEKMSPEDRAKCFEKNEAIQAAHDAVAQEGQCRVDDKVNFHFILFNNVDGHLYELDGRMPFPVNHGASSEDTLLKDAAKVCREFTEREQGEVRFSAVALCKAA
USP30, sequence (Q70CQ3 57-517): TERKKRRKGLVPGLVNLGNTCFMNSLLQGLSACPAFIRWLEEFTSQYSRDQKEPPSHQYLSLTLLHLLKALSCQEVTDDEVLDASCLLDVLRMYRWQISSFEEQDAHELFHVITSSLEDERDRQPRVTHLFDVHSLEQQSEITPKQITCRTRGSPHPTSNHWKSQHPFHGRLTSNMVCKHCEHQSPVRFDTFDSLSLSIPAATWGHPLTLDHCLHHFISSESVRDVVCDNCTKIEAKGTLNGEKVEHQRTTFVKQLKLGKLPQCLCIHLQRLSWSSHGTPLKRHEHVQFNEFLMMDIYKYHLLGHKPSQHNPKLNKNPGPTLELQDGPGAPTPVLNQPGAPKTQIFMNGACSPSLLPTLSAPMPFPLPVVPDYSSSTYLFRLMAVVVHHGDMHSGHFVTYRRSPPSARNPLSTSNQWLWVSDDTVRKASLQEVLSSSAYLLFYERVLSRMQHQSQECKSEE

## N#CN1CC[C@H](NS(=O)(=O)c2ccc(-c3ccccc3)cc2)C1 [Example 4, (S)-N-(1-cyanopyrrolidin-3-yl)-[1,1′-biphenyl]-4-sulfonamide]
[1]; [3]
  pIC50: 6.00 to 7.00
[2]; [4]
  pIC50: 5.00 to 6.00

## Cn1nccc1C(=O)Nc1ccc(S(=O)(=O)NC2CCN(C#N)C2)cn1 (stereo not shown) [Example 24, N-(5-(N-(1-cyanopyrrolidin-3-yl)sulfamoyl)pyridin-2-yl)-1-methyl-1H-pyrazole-5-carboxamide]
[1]; [3]
  pIC50: 6.00 to 7.00
[2]; [4]
  pIC50: 4.00 to 5.00

## CN([C@@H]1CCN(C#N)C1)S(=O)(=O)c1ccc(-c2cccnc2)cc1 [Example 20, (R)—N-(1-cyanopyrrolidin-3-yl)-N-methyl-4-(pyridin-3-yl)benzenesulfonamide]
[1]; [3]
  pIC50: 6.00 to 7.00
[2]; [4]
  pIC50: 5.00 to 6.00

## N#CN1CCC(NS(=O)(=O)c2ccc(-c3cncnc3)cc2)C1 (stereo not shown) [Example 9, N-(1-cyanopyrrolidin-3-yl)-4-(pyrimidin-5-yl)benzenesulfonamide]
[1]; [3]
  pIC50: 6.00 to 7.00
[2]; [4]
  pIC50: 5.00 to 6.00

## N#CN1CCC(S(=O)(=O)N2CCC(c3ccc(Cl)cc3)CC2)C1 (stereo not shown) [Example 30, 3-((4-(4-chlorophenyl)piperidin-1-yl)sulfonyl)pyrrolidine-1-carbonitrile]
[1]; [3]
  pIC50: > 7.00

## Cn1cc(-c2ccc(S(=O)(=O)NC3CCN(C#N)C3)cc2)cn1 (stereo not shown) [Example 15, N-(1-cyanopyrrolidin-3-yl)-4-(1-methyl-1H-pyrazol-4-yl)benzenesulfonamide]
[1]; [3]
  pIC50: 6.00 to 7.00
[2]; [4]
  pIC50: 5.00 to 6.00

## N#CN1CCC(NS(=O)(=O)c2ccccc2)C1 (stereo not shown) [Example 5, N-(1-cyanopyrrolidin-3-yl)benzenesulfonamide]
[2]; [4]
  pIC50: 4.00 to 5.00

## CC(C)c1ccc(S(=O)(=O)NC2CCN(C#N)C2)cc1 (stereo not shown) [Example 18, N-(1-cyanopyrrolidin-3-yl)-4-isopropylbenzenesulfonamide]
[1]; [3]
  pIC50: 5.00 to 6.00
[2]; [4]
  pIC50: 4.00 to 5.00

## N#CN1CCC(S(=O)(=O)N2CC(c3ccc(Cl)cc3)C2)C1 (stereo not shown) [Example 34, 3-((3-(4-chlorophenyl)azetidin-1-yl)sulfonyl)pyrrolidine-1-carbonitrile]
[1]; [3]
  pIC50: 6.00 to 7.00

## N#CN1CCC(NS(=O)(=O)c2ccc(-c3ccccc3)cn2)C1 (stereo not shown) [Example 11, N-(1-cyanopyrrolidin-3-yl)-5-phenylpyridine-2-sulfonamide]
[1]; [3]
  pIC50: 6.00 to 7.00
[2]; [4]
  pIC50: 4.00 to 5.00

## Cc1ccc(S(=O)(=O)N2CCO[C@@H]3CN(C#N)C[C@H]32)cc1 (racemic) [Example 22, rac-(4aR,7aR)-4-tosylhexahydropyrrolo[3,4-b][1,4]oxazine-6(2H)-carbonitrile]
[1]; [3]
  pIC50: 4.00 to 5.00

## N#CN1CCC(S(=O)(=O)N2CC(Oc3ccccc3)C2)C1 (stereo not shown) [Example 37, 3-((3-phenoxyazetidin-1-yl)sulfonyl)pyrrolidine-1-carbonitrile]
[1]; [3]
  pIC50: 4.00 to 5.00

## N#CN1CC[C@@H](NS(=O)(=O)c2ccccc2)C1 [Example 7, (R)-N-(1-cyanopyrrolidin-3-yl)benzenesulfonamide]
[1]; [3]
  pIC50: 5.00 to 6.00

## N#CN1CCC(NS(=O)(=O)c2ccc(N3CCCCC3)cc2)C1 (stereo not shown) [Example 14, N-(1-cyanopyrrolidin-3-yl)-4-(piperidin-1-yl)benzenesulfonamide]
[1]; [3]
  pIC50: 6.00 to 7.00
[2]; [4]
  pIC50: 4.00 to 5.00

## N#CN1CCC(NS(=O)(=O)c2ccc(-c3ccccc3)cc2)C1 (stereo not shown) [Example 2, N-(1-cyanopyrrolidin-3-yl)-[1,1′-biphenyl]-4-sulfonamide]
[1]; [3]
  pIC50: 6.00 to 7.00
[2]; [4]
  pIC50: 5.00 to 6.00

## N#CN1CCC(S(=O)(=O)Nc2ccc(-c3ccccc3)cc2)C1 (stereo not shown) [Example 26, N-([1,1′-biphenyl]-4-yl)-1-cyanopyrrolidine-3-sulfonamide]
[1]
  pIC50: 6.00 to 7.00
[2]
  pIC50: 4.00 to 5.00

## Cc1ccc(CS(=O)(=O)N2CCO[C@H]3CN(C#N)C[C@H]32)cc1 (racemic) [Example 23, rac-(4aR,7aS)-4-(4-methylbenzyl)sulfonyl)hexahydropyrrolo[3,4-b][1,4]oxazine-6(2H)-carbonitrile]
[1]; [3]
  pIC50: 6.00 to 7.00

## N#CN1CCC(S(=O)(=O)N2CCN(c3ccc(F)cc3)CC2)C1 (stereo not shown) [Example 27, 3-((4-(4-fluorophenyl)piperazin-1-yl)sulfonyl)pyrrolidine-1-carbonitrile]
[1]; [3]
  pIC50: 4.00 to 5.00

## Cc1ccc(F)cc1S(=O)(=O)NC1CCN(C#N)C1 (stereo not shown) [Example 17, N-(1-cyanopyrrolidin-3-yl)-5-fluoro-2-methylbenzenesulfonamide]
[1]; [3]
  pIC50: 5.00 to 6.00

## CN1CCN(c2ccc(S(=O)(=O)NC3CCN(C#N)C3)cc2)CC1 (stereo not shown) [Example 10, N-(1-cyanopyrrolidin-3-yl)-4-(4-methylpiperazin-1-yl)benzenesulfonamide]
[1]; [3]
  pIC50: 5.00 to 6.00

## N#CN1CCC(NS(=O)(=O)c2ccc(OCc3ccccc3)cc2)C1 (stereo not shown) [Example 8]
[1]; [3]
  pIC50: 6.00 to 7.00
[2]; [4]
  pIC50: 5.00 to 6.00

## N#CN1CCC(S(=O)(=O)N2CCN(c3ccccn3)CC2)C1 (stereo not shown) [Example 28]
[1]; [3]
  pIC50: 6.00 to 7.00

## N#CN1CCC(NS(=O)(=O)c2ccccc2-c2ccccc2)C1 (stereo not shown) [Example 1, N-(1-cyanopyrrolidin-3-yl)-[1,1′-biphenyl]-2-sulfonamide]
[1]; [3]
  pIC50: 6.00 to 7.00
[2]; [4]
  pIC50: 4.00 to 5.00

## N#CN1CCC(NS(=O)(=O)c2ccc(-c3ccncc3)cc2)C1 (stereo not shown) [Example 13, N-(1-cyanopyrrolidin-3-yl)-4-(pyridin-4-yl)benzenesulfonamide]
[1]; [3]
  pIC50: 6.00 to 7.00
[2]; [4]
  pIC50: 5.00 to 6.00

## N#CN1CCC(NS(=O)(=O)c2ccc(Oc3ccc(C(F)(F)F)cn3)cc2)C1 (stereo not shown) [Example 19, N-(1-cyanopyrrolidin-3-yl)-4-((5-(trifluoromethyl)pyridin-2-yl)oxy)benzenesulfonamide]
[1]; [3]
  pIC50: 6.00 to 7.00
[2]; [4]
  pIC50: 6.00 to 7.00

## N#CN1C[C@H]2CCN(S(=O)(=O)c3ccc(-c4cccnc4)cc3)[C@H]2C1 [Example 21, (3aR,6aR)-1-((4-(pyridin-3-yl)phenyl)sulfonyl)hexahydropyrrolo[3,4-b]pyrrole-5(1H)-carbonitrile]
[1]; [3]
  pIC50: 6.00 to 7.00

## CN(C1CCN(C#N)C1)S(=O)(=O)c1ccc(Oc2ccc(C(F)(F)F)cn2)cc1 (stereo not shown) [Example 25, N-(1-cyanopyrrolidin-3-yl)-N-methyl-4-((5-(trifluoromethyl)pyridin-2-yl)oxy)benzenesulfonamide]
[1]; [3]
  pIC50: 6.00 to 7.00
[2]; [4]
  pIC50: 5.00 to 6.00

## N#CN1CCC(NS(=O)(=O)c2ccc(-c3ccc(F)cc3)cc2)C1 (stereo not shown) [Example 12, N-(1-cyanopyrrolidin-3-yl)-4′-fluoro-[1,1′-biphenyl]-4-sulfonamide]
[2]; [4]
  pIC50: 5.00 to 6.00

## N#CN1CC[C@@H](S(=O)(=O)N2CC(c3ccc(Cl)cc3)C2)C1 [Example 36, (R)-3-((3-(4-chlorophenyl)azetidin-1-yl)sulfonyl)pyrrolidine-1-carbonitrile]
[1]; [3]
  pIC50: 6.00 to 7.00

## N#CN1CCC(NS(=O)(=O)c2ccc(Oc3ccccc3)nc2)C1 (stereo not shown) [Example 16, N-(1-cyanopyrrolidin-3-yl)-6-phenoxypyridine-3-sulfonamide]
[1]; [3]
  pIC50: 6.00 to 7.00
[2]; [4]
  pIC50: 4.00 to 5.00

## N#CN1CCC(S(=O)(=O)N2CCC(Cc3ccccc3)CC2)C1 (stereo not shown) [Example 33, 3-((4-benzylpiperidin-1-yl)sulfonyl)pyrrolidine-1-carbonitrile]
[1]; [3]
  pIC50: 6.00 to 7.00

## N#CN1CC[C@H](S(=O)(=O)N2CC(c3ccc(Cl)cc3)C2)C1 [Example 35, (S)-3-((3-(4-chlorophenyl)azetidin-1-yl)sulfonyl)pyrrolidine-1-carbonitrile]
[1]; [3]
  pIC50: 6.00 to 7.00

## N#CN1CCC(S(=O)(=O)N2CCN(c3ncccn3)CC2)C1 (stereo not shown) [Example 29, 3-((4-(pyrimidin-2-yl)piperazin-1-yl)sulfonyl)pyrrolidine-1-carbonitrile]
[1]; [3]
  pIC50: 5.00 to 6.00
